Patent US10905683B2, “Compositions and uses of amidine derivatives” (BIOCRYST PHARMACEUTICALS, INC., priority 2014, dated 2021)
Like-named read-outs stand apart in the source and are kept apart here.

How the values were obtained:
[1] = Caco-2 bi-directional permeability, absence and presence of P-gp inhibitor verapamil; type: in vitro ADME; conditions: human; Caco-2, P-gp inhibitor absent
Procedure: (§1) The Caco-2 bi-directional permeability of the compound of Example 1 was evaluated in the absence and presence of a known P-gp inhibitor, verapamil.

Caco-2 = assay: as above; type: in vitro ADME
Procedure: as §1

[2] = Phase 1 Part 2, multiple ascending dose pharmacokinetics (7 days, q8h); type: in vivo, human; conditions: for Cmax / AUC(0-t) / Tmax / AUC / half-life / concentration at 8 h: human, plasma, oral; for AUC(0-t): read-out: AUC0-8; for concentration at 8 h: read-out: Ctau
Procedure: (§2) Part 2 of the study evaluated the safety, tolerability, PK, and PD of multiple ascending doses of the compound of Example 1. Twelve subjects were administered a 7-day course of the compound of Example 1 (n=10 subjects/cohort received the API and n=2 subjects/cohort received matching placebo) according to the following dose regimens: 100 mg of the compound of Example 1 or placebo every 8 hours (q8h) in Cohort 1; 200 mg of the compound of Example 1 or placebo q8h in Cohort 2; 400 mg of the compound of Example 1 or placebo q8h in Cohort 3 and 800 mg of the compound of Example 1 or placebo q8h in Cohort 4.
A total of 48 subjects were enrolled in Part 2 of the Study and 47 subjects completed the study. A summary of pharmacokinetic parameters for the compound of Example 1 for the first dose on Day 1 and last dose on Day 7 is presented in Table 17. […] Day 7 geometric mean exposure (AUCtau and Cmax) did increase with increasing dose. Drug exposure was dose proportional through 400 mg three times a day. At 400 mg three times a day, pre-dose geometric mean drug levels and coefficient of variation (CV) on day 7 were 28.6 ng/ml and 77% and post-dose geometric mean maximum drug levels and CV were 152 ng/ml and 57%. Plasma concentrations of the compound of Example 1 over 25 ng/ml are expected to be efficacious in treating conditions such as, but not limited to, HAE and AAE.

[3] = Phase 1 safety and tolerability; type: in vivo, human; conditions: healthy subjects
Procedure: A two-part, Phase 1, double-blind, placebo-controlled study of the compound of Example 1 was conducted in healthy subjects. Part 1 of the study assessed the safety, tolerability and the pharmacokinetic (PK) and pharmacodynamic (PD) properties of the compound of Example 1 following a single ascending dose. Subjects were enrolled in five sequential cohorts and received the compound of Example 1 (50 mg, 125 mg, 250 mg, 500 mg or 1000 mg; n=6/cohort) or placebo (n=2/cohort) under fasting conditions. To enable a food-effect assessment on exposure, subjects enrolled in Cohort 4 (500 mg or placebo) subsequently received a second dose of the compound of Example 1 following a high-fat breakfast.
as §2

[4] = 400 mg three times a day, day 7
[5] = 100 mg, Day 1, 100 mg q 8 h, GM
[6] = 100 mg, Day 1, 100 mg q 8 h, Median
[7] = 100 mg, Day 7, 100 mg q 8 h, GM
[8] = 100 mg, Day 7, 100 mg q 8 h, Median
[9] = 200 mg, Day 1, 200 mg q 8 h, GM
[10] = 200 mg, Day 1, 200 mg q 8 h, Median
[11] = 200 mg, Day 7, 200 mg q 8 h, GM
[12] = 200 mg, Day 7, 200 mg q 8 h, Median
[13] = 400 mg, Day 1, 400 mg q 8 h, GM
[14] = 400 mg, Day 1, 400 mg q 8 h, Median
[15] = 400 mg, Day 7, 400 mg q 8 h, GM
[16] = 400 mg, Day 7, 400 mg q 8 h, Median
[17] = 800 mg, Day 1, 800 mg q 8 h, GM
[18] = 800 mg, Day 1, 800 mg q 8 h, Median
[19] = 800 mg, Day 7, 800 mg q 8 h, GM
[20] = 800 mg, Day 7, 800 mg q 8 h, Median

C=Cc1cc(C(=O)Nc2ccc(C(=N)N)cc2)c(-c2ccc(C(=O)NCC3CC3)nc2C(=O)O)cc1OC [Example 1, 3-[2-(4-carbamimidoyl-phenylcarbamoyl)-5-methoxy-4-vinyl-phenyl]-6-(cyclopropylmethyl-carbamoyl)-pyridine-2-carboxylic acid]
Papp A→B [1]: 0.5 ×10⁻⁶ cm/s
Papp B→A [1]: 0.5 ×10⁻⁶ cm/s
efflux ratio [1]: 0.9
permeability class (Caco-2; Caco-2 bi-directional): low permeability compound
P-gp substrate (Caco-2; Caco-2 with and without verapamil): does not appear to be a substrate of P-gp
post-dose geometric mean maximum drug level [2, 4]: 152 ng/mL
pre-dose geometric mean drug level [2, 4]: 28.6 ng/mL
accumulation in Cmax and AUC after repeated dosing compared to first day ([2]; 7 days q8h): approximately 30%
Ctau ([2]; Day 7, 100 mg q 8 h, GM): 8.34 ng/mL
DN AUCtau ([2]; Day 7, 100 mg q 8 h, GM): 2.37 ng·h/mL/mg
Ctau ([2]; Day 7, 100 mg q 8 h, Median): 7.92 ng/mL
DN AUCtau ([2]; Day 7, 200 mg q 8 h, GM): 1.58 ng·h/mL/mg
DN AUCtau ([2]; Day 7, 400 mg q 8 h, GM): 1.34 ng·h/mL/mg
Ctau ([2]; Day 7, 800 mg q 8 h, GM): 23.7 ng/mL
DN AUCtau ([2]; Day 7, 800 mg q 8 h, GM): 0.847 ng·h/mL/mg
Ctau ([2]; Day 7, 800 mg q 8 h, Median): 30.3 ng/mL
time of maximal concentrations postdose ([2]; across dosing days and cohorts): approximately 2 hours
Cmax [2, 5]: 54.5 ng/mL
AUC(0-t) [2, 5]: 173 ng·h/mL
Cmax [2, 6]: 49.4 ng/mL
Tmax [2, 6]: 1 h
AUC(0-t) [2, 6]: 185 ng·h/mL
AUC [2, 7]: 237 ng·h/mL
Cmax [2, 7]: 72.6 ng/mL
half-life ([2]; 100 mg, Day 7, 100 mg q 8 h, GM, read-out: t1/2 (converted)): 12.4 h
AUC [2, 8]: 246 ng·h/mL
Cmax [2, 8]: 71.2 ng/mL
Tmax [2, 8]: 2 h
half-life ([2]; 100 mg, Day 7, 100 mg q 8 h, Median, read-out: t1/2 (converted)): 11.5 h
Cmax [2, 9]: 72 ng/mL
AUC(0-t) [2, 9]: 236 ng·h/mL
Cmax [2, 10]: 89.7 ng/mL
Tmax [2, 10]: 2 h
AUC(0-t) [2, 10]: 251 ng·h/mL
AUC [2, 11]: 316 ng·h/mL
Cmax [2, 11]: 83.6 ng/mL
concentration at 8 h [2, 11]: 12.9 ng/mL
half-life ([2]; 200 mg, Day 7, 200 mg q 8 h, GM, read-out: t1/2 (converted)): 12.6 h
AUC [2, 12]: 385 ng·h/mL
Cmax [2, 12]: 92.3 ng/mL
Tmax [2, 12]: 2 h
concentration at 8 h [2, 12]: 13 ng/mL
half-life ([2]; 200 mg, Day 7, 200 mg q 8 h, Median, read-out: t1/2 (converted)): 13.5 h
Cmax [2, 13]: 119 ng/mL
AUC(0-t) [2, 13]: 421 ng·h/mL
Cmax [2, 14]: 124 ng/mL
Tmax [2, 14]: 2 h
AUC(0-t) [2, 14]: 395 ng·h/mL
AUC [2, 15]: 534 ng·h/mL
Cmax [2, 15]: 152 ng/mL
concentration at 8 h [2, 15]: 17.4 ng/mL
half-life ([2]; 400 mg, Day 7, 400 mg q 8 h, GM, read-out: t1/2 (converted)): 13 h
AUC [2, 16]: 463 ng·h/mL
Cmax [2, 16]: 129 ng/mL
Tmax [2, 16]: 2 h
concentration at 8 h [2, 16]: 14.6 ng/mL
half-life ([2]; 400 mg, Day 7, 400 mg q 8 h, Median, read-out: t1/2 (converted)): 12.7 h
Cmax [2, 17]: 143 ng/mL
AUC(0-t) [2, 17]: 504 ng·h/mL
Cmax [2, 18]: 153 ng/mL
Tmax [2, 18]: 2 h
AUC(0-t) [2, 18]: 581 ng·h/mL
AUC [2, 19]: 678 ng·h/mL
Cmax [2, 19]: 187 ng/mL
half-life ([2]; 800 mg, Day 7, 800 mg q 8 h, GM, read-out: t1/2 (converted)): 7.46 h
AUC [2, 20]: 835 ng·h/mL
Cmax [2, 20]: 240 ng/mL
Tmax [2, 20]: 2 h
half-life ([2]; 800 mg, Day 7, 800 mg q 8 h, Median, read-out: t1/2 (converted)): 8.03 h
half-life ([2]; calculated over a 24 hour period, read-out: terminal elimination half-life (converted)): ~10 h
safety and tolerability ([3]; Part 1 (50-1000 mg single) and Part 2 (100-800 mg q8h, 7 days)): generally safe and well tolerated
dose-limiting adverse events ([3]; Part 1 and Part 2): no dose-limiting adverse events
serious adverse events ([3]; Part 1 and Part 2): no serious adverse events
